Earlier results in patent US20250356959A1, “Toxicity Prediction Of Compounds In Cellular Structures” (Sanofi, priority 2022, published 2025).

Test system: liver cells
Settings: positive control, 60 micro moles

CN(C)CCCN1c2ccccc2Sc2ccc(Cl)cc21 [CPZ, Chlorpromazine]
known toxic effect of reference compound: toxic to liver cells and triggers cholestasis
